Source: patent US4851416A, “Berban derivatives as α2 -adrenergic antagonists” (priority 1985, dated 1989)
Counter-ions that a name gives are not always drawn. Like-named read-outs stand apart in the source and are kept apart here. Blank lines part the entries; values can stand above or below the molecule they belong to.

Columns and labels:
[1] = target: T1, α1-receptors of the rat vas deferens (Rattus norvegicus, UniProt P43140); assay: Antagonism of α1-receptors of the rat vas deferens (phenylephrine as agonist); format: biochemical; design: key to nature of the competition (α1, rat vas deferens): NC means non-competitive; C means competitive; settings: for Kb: compounds of formula (I) as hydrochlorides, read-out: pA2 (α1, rat vas deferens) (converted)
T1 construct: from tissue; host or cells: rat vas deferens
T1 sequence (P43140 1-466): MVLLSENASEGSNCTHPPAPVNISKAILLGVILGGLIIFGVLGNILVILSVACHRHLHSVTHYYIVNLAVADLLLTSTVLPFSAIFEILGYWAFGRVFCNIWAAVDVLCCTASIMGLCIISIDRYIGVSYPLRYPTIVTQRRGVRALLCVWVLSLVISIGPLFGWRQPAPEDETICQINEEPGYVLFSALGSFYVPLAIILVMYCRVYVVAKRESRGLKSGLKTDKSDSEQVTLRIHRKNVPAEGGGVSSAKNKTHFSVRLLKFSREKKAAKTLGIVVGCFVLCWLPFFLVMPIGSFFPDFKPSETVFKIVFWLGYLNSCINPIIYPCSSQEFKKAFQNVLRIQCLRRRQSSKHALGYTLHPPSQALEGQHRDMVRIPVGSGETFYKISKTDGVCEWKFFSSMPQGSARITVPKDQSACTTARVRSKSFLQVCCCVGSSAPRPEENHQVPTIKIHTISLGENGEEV
Experimental: Phenylephrine was used as agonist on the α1 -adrenergic receptors whereby both the rat vas deferens and the pulmonary artery of the rabbit were contracted. […] The pA2 value was determined by using the method of Arunlakshana and Schield (1959) cited above. The nature of the competition is also given (NC means non-competitive, C means competitive).

[2] = target: T2, α2-receptors of the rat vas deferens (Rattus norvegicus, UniProt P22909); assay: Antagonism of α2-receptors of the rat vas deferens (xylazine as agonist); format: biochemical; settings: for Kb: read-out: pA2 (α2, rat vas deferens) (converted)
T2 construct: from tissue; host or cells: rat vas deferens
T2 sequence (P22909 1-465): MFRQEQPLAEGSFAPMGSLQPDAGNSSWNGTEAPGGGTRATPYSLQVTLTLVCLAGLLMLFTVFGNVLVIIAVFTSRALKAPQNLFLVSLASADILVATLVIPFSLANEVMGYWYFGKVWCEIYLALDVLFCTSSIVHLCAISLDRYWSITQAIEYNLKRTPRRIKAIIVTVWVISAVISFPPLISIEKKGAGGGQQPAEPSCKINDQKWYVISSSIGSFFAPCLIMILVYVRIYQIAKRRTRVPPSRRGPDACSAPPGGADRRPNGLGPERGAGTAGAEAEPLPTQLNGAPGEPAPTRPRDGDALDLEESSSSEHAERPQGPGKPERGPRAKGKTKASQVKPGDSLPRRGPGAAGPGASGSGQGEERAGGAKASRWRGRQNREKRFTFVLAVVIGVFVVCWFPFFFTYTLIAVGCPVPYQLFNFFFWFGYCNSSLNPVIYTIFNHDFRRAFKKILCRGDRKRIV
Experimental: The action of known α-adrenergic receptor-blocking agents and the
formula (I) on the α2 -receptors of the rat vas deferens
(xylazine as agonist) and of the
The tissues were suspended at 37° C. in an organ bath containing 5 ml of Krebs solution. […] Both the compounds of formula (I) and the reference substances were tested against xylazine (on the rat vas daferens) as well as against […] (on the longitudinal smooth muscle preparation from the guinea pig ileum). The amplitude of the contraction response caused by the stimulation is inhibited on the α2 -adrenergic receptors by xylazine or norepinephrine.

[3] = system: α2-receptors (vs α1-receptors) of the rat vas deferens; assay: Selectivity against the α2-receptors on the rat vas deferens (from Tables 1 and 2); format: biochemical; settings: calculated from Tables 1 and 2, hydrochlorides
Description: The pA2 values concerning the α1 -receptor of the antagonists were divided by the pA2 values concerning the α2 -receptor of the antagonists (α1 /α2).

[4] = target: α1-receptors of the pulmonary artery of rabbit; assay: Antagonism of α1-receptors of the pulmonary artery of rabbit (phenylephrine as agonist); format: biochemical; settings: compounds of formula (I) as hydrochlorides
Experimental: The action of known α-adrenergic receptor-blocking
on the α1 -receptors of the rat vas deferens and of
the pulmonary artery of rabbit against phenylephrine
Phenylephrine was used as agonist on the α1 -adrenergic receptors whereby both the rat vas deferens and the pulmonary artery of the rabbit were contracted. This concractile effect was inhibited by antagonists. The pA2 value was determined by using the method of Arunlakshana and Schield (1959) cited above. The nature of the competition is also given (NC means non-competitive, C means competitive).

[5] = target: α1-receptors of the pulmonary artery of rabbit; assay: Antagonism of α1-receptors of the pulmonary artery of rabbit (norepinephrine as agonist); format: biochemical; settings: compounds of formula (I) as hydrochlorides
Description: On the α1 -receptors of the pulmonary artery, a contraction is elicited by norepinephrine which is inhibited by antagonists.

[6] = system: norepinephrine turnover in the frontal cortex; assay: Norepinephrine turnover in the frontal cortex after α-methyl-p-tyrosine; format: in vivo, rat; settings: for Kb (fractional rate constant) / Tt (catecholamine turnover time) / TRCA (catecholamine turnover rate): NE, with α-MPT; for TRCA (catecholamine turnover rate): ** p 0.01, *** p 0.001 vs control; for NE content: α-MPT 320 mg/kg i.p. pre-treatment, 4 animals
Experimental: (§1) Male rates with 100 g of body-weight were intraperitoneally pre-treated (at minute 0) with 320 mg/kg of α-methyl-p-tyrosine. […] After centrifuging, the norepinephrine content (frontal cortex) or the dopamine content (striatum) of the supernatant, respectively, was determined by using the method of the […] liquid chromatography-electrochemical detection. […] The significance level of the difference related to the control group was also determined (** p 0.01; *** p 0.001).

[7] = system: dopamine turnover in the striatum; assay: Dopamine turnover in the striatum after α-methyl-p-tyrosine; format: in vivo, rat; settings: for Kb (fractional rate constant) / Tt (catecholamine turnover time) / TRCA (catecholamine turnover rate): DA, with α-MPT; for TRCA (catecholamine turnover rate): ** p 0.01 vs control; for DA content: α-MPT 320 mg/kg i.p. pre-treatment, 4 animals
Experimental: as §1

[8] = xylazine as agonist, compounds of formula (I) as hydrochlorides, (n) in brackets

nature of the competition (α1, rat vas deferens) [1]: NC
Kb [1]: 3.09 µM
SMILES: CCOC(=O)C1C(O)CCC2CN3CCc4cc5c(cc4C3CC21)OCO5 (stereo not drawn) [Example 17, ethyl 14β-hydroxy-7,8-methylenedioxyalloberban-13-carboxylate]

nature of the competition (α1, rat vas deferens) [1]: NC
Kb [1]: 0.661 µM
pA2 (α1, pulmonary artery of rabbit) [4]: 4.68 ± 0.27
SMILES: COC(=O)C1C(O)CCC2CN3CCc4cc5c(cc4C3CC21)OCO5 (stereo not drawn) [Example 1, methyl 14-β-hydroxy-7,8-methylenedioxy-alloberban-13-carboxylate]

nature of the competition (α1, rat vas deferens) [1]: NC
Kb [1]: 11.2 µM
pA2 (α1, pulmonary artery of rabbit) [5]: 5.29 ± 0.20
SMILES: O[C@@H]1CC[C@H]2CN3CCc4cc5c(cc4[C@H]3C[C@H]2C1)OCO5 (relative stereo) [Example 26, 14α-hydroxy-7,8-methylenedioxyalloberban]
Kb (fractional rate constant) [6]: 0.740 h⁻¹
Tt (catecholamine turnover time) [6]: 1.35 h
TRCA (catecholamine turnover rate) [6]: 0.64 ± 0.03 nmole/g, h^-1
NE content [6]: 0.87 ± 0.05 nmol/g
Kb (fractional rate constant) [7]: 0.776 h⁻¹
Tt (catecholamine turnover time) [7]: 1.28 h
TRCA (catecholamine turnover rate) [7]: 37.27 ± 3.62 nmole/g, h^-1
DA content [7]: 48.03 ± 4.66 nmol/g

pA2 (α1, pulmonary artery of rabbit) [4]: 4.61 ± 0.2
SMILES: COC(=O)C1C(O)CCC2CN3CCc4cc5c(cc4C3CC21)OCO5 (stereo not drawn) [Example 6, methyl 14α-hydroxy-7,8-methylenedioxyberban-13-carboxylate]

nature of the competition (α1, rat vas deferens) [1]: NC
Kb [1]: 14.1 µM
pA2 (α1, pulmonary artery of rabbit) [5]: 4.83 ± 0.52
SMILES: O[C@H]1CC[C@H]2CN3CCc4cc5c(cc4[C@H]3C[C@H]2C1)OCO5 (relative stereo) [Example 25, 14β-hydroxy-7,8-methylenedioxyalloberban]

The next lines start with the molecule.

SMILES: CCn1ccnc1CC1COc2ccccc2O1 (centres unmarked) [Imiloxan, reference compound]
Kb [2, 8]: 0.145 µM
Relative activity, vas deferens ([2]; α2-inhibiting effect relative to yohimbine = 1.0): 0.13
nature of the competition (α1, rat vas deferens) [1]: NC
Kb [1]: 0.0525 µM
Selectivity α1/α2 [3]: 0.36

SMILES: COC(=O)[C@@H]1[C@H]2C[C@H]3c4[nH]c5ccccc5c4CCN3C[C@@H]2CC[C@@H]1O [Yohimbine, reference compound]
nature of the competition (α1, rat vas deferens) [1]: NC
pA2 (α1, pulmonary artery of rabbit) [4]: 5.59 ± 0.4
pA2 (α1, pulmonary artery of rabbit) [5]: 5.81 ± 0.37
Kb (fractional rate constant) [6]: 0.880 h⁻¹
Tt (catecholamine turnover time) [6]: 1.13 h
TRCA (catecholamine turnover rate) [6]: 0.87 ± 0.06 nmole/g, h^-1
NE content [6]: 0.99 ± 0.07 nmol/g
Kb (fractional rate constant) [7]: 0.906 h⁻¹
Tt (catecholamine turnover time) [7]: 1.10 h
TRCA (catecholamine turnover rate) [7]: 58.40 ± 5.47 nmole/g, h^-1
DA content [7]: 64.46 ± 6.04 nmol/g

SMILES: Cc1ccc(N(CC2=NCCN2)c2cccc(O)c2)cc1 [Phentolamine, reference compound]
nature of the competition (α1, rat vas deferens) [1]: C

SMILES: c1ccc2c(c1)OCC(C1=NCCN1)O2 (centres unmarked) [Idazoxan, reference compound]
nature of the competition (α1, rat vas deferens) [1]: NC
Kb [1]: 1 µM
pA2 (α1, pulmonary artery of rabbit) [5]: 6.03 ± 0.11

SMILES: CCOc1cc2c(cc1OCC)[C@H]1C[C@H]3C[C@@H](O)CC[C@H]3CN1CC2 (relative stereo) [Example 11, 14β-hydroxy-7,8-diethoxyalloberban]
Relative activity, vas deferens [2]: 0.05
Kb [2, 8]: 0.38 µM

SMILES: Oc1cc2c(cc1O)[C@H]1C[C@H]3C[C@@H](O)CC[C@H]3CN1CC2 (relative stereo) [As hydrobromide]
Relative activity, vas deferens [2]: 0.01
pA2 (α2, rat vas deferens) [2, 8]: 5.74 ± 0.11
